From patent US11249100B2, “Modular robotic systems for delivering fluid to microfluidic devices” (Worcester Polytechnic Institute, priority 2018, dated 2022)
Entries after “also recorded” stand apart in the source; their conditions may differ.

What was measured:
[1] = tested on: AWA chemosensory neurons; assay: Automated solvent screen: optogenetically (Chrimson) evoked GCaMP calcium responses in living nematodes; format: in vivo, C. elegans; settings: for effect on peak fluorescent responses to Chrimson-induced activation: <1 min exposure, compared to prior buffer control, 20 young adult animals; for persistence of suppression after returning to buffer fluid: alternating buffer control wells after solvent wells
Protocol: The C. elegans strain NZ1091 was integrated by irradiation and backcrossed at least 10×. Animals were grown and maintained at 20° C. on NGM plates with OP50 E. coli bacteria. At least 12 hrs prior to experimentation, L4 stage C. elegans were picked and transferred to 50 μM All Trans Retinal (ATR) in OP50 E. coli spotted onto an unseeded NGM plate. For the dose response experiment, C. elegans were selected as L4s the day before and tested as young adults the next day.
All solvents were prepared in Eppendorf tubes at 1% and 5% v/v concentrations to 1 mL in paralysis buffer (S. Basal buffer without cholesterol containing the acetylcholine agonist 1 mM (−)-tetramisole hydrochloride) and vortexed to mix for 30 s-1 min. Solvent dilutions were transferred to a 96 deep well plate (700µL/well). Alternating control wells were filled with 100 ng/mL fluorescein in paralysis buffer to visualize alternating solution delivery. Animals were exposed to paralysis buffer flow for ˜1-2 hrs prior to solvent delivery to keep animals stationary during recording. The 96 well plate was loaded with solvent solutions by hand the hour before recording and sealed with adhesive film (Glad® Press-n-Seal).
Methods followed those described previously. About 20-30 animals co-expressing GCaMP and Chrimson in the AWA chemosensory neuron pair were loaded into a modified high-throughput microfluidic imaging device optimized for 4× magnification with only the inlet, back pressure, worm loading, and outlet port(s) punched. Optical configurations were customized using an ASI RAMM frame and commercially available components for low-magnification wide-filed GCaMP excitation (4×/0.28 NA), compatible with Chrimson excitation, and high-resolution (1024×1024) 10 fps image acquisition. In addition to the optical set up described above, a 617 nm Mightex LED was mounted beneath the RAMM stage with an additional cube housing a 590 LP excitation dichroic to pass uniform Chrimson activation across the entire field of view. At each inlet well position, animals were exposed to solution for <1 min total, during which a 30 s delay was programmed to sufficiently fill the tubing after each well transfer for serially delivered solutions. Then, an immediate acquisition of 15 s (10 frames/s, 10 ms blue light pulse, 10 ms delay, 2×2 binning) began with a 617 nm light presence for 5 s (from 2.5 s to 7.5 s). Custom scripts were used for quantifying neuron fluorescence (Neurotracker ImageJ macro) and MATLAB17a for data analysis and visualization.
The robotic system was used to screen 14 different solvents at two concentrations (1% and 5%) for their effects on optogenetically-evoked neural responses. Solvent dilutions were prepared in a 96-well plate alternating with buffer control wells (FIG. 8A). A previously established high-throughput imaging device was used to record calcium signals from individual neurons of 20-25 young adult animals (FIG. 8B). Animals co-expressed the red-shifted channelrhodopsin (Chrimson) and the genetically encoded calcium sensor (GCaMP2.2b) in the AWA chemosensory neurons (FIG. 8C), allowing simultaneous optical stimulation and monitoring of neural responses.

[2] = tested on: ASER chemosensory neuron; settings: ASER::GCaMP; downshift from base 40 mM NaCl; triplicate pulses
[3] = tested on: AWA chemosensory neurons; assay: Automated diacetyl odor dose response, GCaMP calcium imaging; format: in vivo, C. elegans
[4] = 1% v/v solvent in paralysis buffer
[5] = 5% v/v solvent in paralysis buffer

`CN(C)C=O` [DMF] was tested, and the “effect on peak fluorescent responses to Chrimson-induced activation” value (from here on “effect on peak fluorescent responses”) [1, 4] was “weaker suppressive effects”.
In the case of `C[S+](C)[O-]` [DMSO], the “effect on peak fluorescent responses” value [1, 4] is reported as “variable and weakly suppressed responses; also recorded: weaker suppressive effects”.
With `[Cl-].[Na+]` [NaCl] the “NaCl shift giving a minimal but robust response in ASE” value [2] was “shift from 40 mM to 35 mM”.
In the case of `CC(C)=O` [acetone], the “effect on peak fluorescent responses” value [1, 5] is reported as “weaker suppressive effects”.
For `CC#N` [acetonitrile], the “effect on peak fluorescent responses” value [1, 5] was “significantly suppressed; also recorded: most significant suppressive effects” and the “persistence of suppression after returning to buffer fluid” value (shortened to “persistence of suppression”) [1] was “transient”.
For `CC(=O)C(C)=O` [diacetyl], the “diacetyl concentration giving a minimal but robust odor response in AWA” value ([3]; AWA::GCaMP young adults, triplicate odor pulses once per minute) was 0.1 µM and the “odor-evoked neural responses versus concentration” value ([3]; AWA::GCaMP, diacetyl from 0.1 μM to 1 mM) was “strengthened with increasing odor concentration”.
`CCO` [ethanol] was tested, and the “effect on peak fluorescent responses” value [1, 5] was “variable and weakly suppressed responses; also recorded: most significant suppressive effects”.
In the case of `CC(C)O` [isopropanol], the “effect on peak fluorescent responses” value [1, 4] is reported as “significantly suppressed”, the “effect on peak fluorescent responses” value [1, 5] is reported as “significantly suppressed; also recorded: most significant suppressive effects” and the “persistence of suppression” value [1] is reported as “transient”. The “effect on optogenetically-evoked neural responses” value ([1]; solvents at 1% and 5%, concentration not separated) was “suppression of optogenetic stimulation”.
For `CO` [methanol], the “effect on peak fluorescent responses” value [1, 4] was “significantly suppressed”, the “effect on peak fluorescent responses” value [1, 5] was “significantly suppressed; also recorded: most significant suppressive effects” and the “persistence of suppression” value [1] was “transient”.
